According to patent US20250031734A1, “COMPOSITIONS COMPRISING REBAUDIOSIDE J” (PepsiCo, Inc., priority 2016, published 2025):
Where a SMILES comes first, the peptide text is derived from it.

Experiments:
sensory panelists = test: Sweetness modifier test, control vs sample with 30 ppm rebaudioside J (Example 6A); format: in vivo, human; conditions: sweetener plus 30 ppm rebaudioside J vs sweetener alone; about 5% SEV / 5 degrees Brix; pH 3.1 phosphate buffer; 13 to 16 panelists
Procedure: The ability of rebaudioside J to modify the sweetness of natural and artificial sweeteners was assessed by comparing the sweetness of control samples without rebaudioside J to the sweetness of samples containing a mixture of the natural or artificial sweetener being tested and rebaudioside J. Control solutions were prepared by dissolving sucrose, HFCS, acesulfame-K, aspartame, and sucralose in pH 3.1 phosphate buffer. […] Sucrose and high fructose corn syrup (HFCS) were prepared as 5 degrees Brix solutions. This concentration was confirmed with an Anton Paar refractometer. […] Experimental samples were identical to control samples except for the addition of 30 ppm rebaudioside J. Tasting Protocol: The number of sensory panelists ranged from 13 to 16 for all sweeteners tested. Panelists were provided with a control sample prepared as described above. Panelists were also provided with an otherwise identical experimental sample prepared as described above. Panelists were asked to determine which sample tasted sweeter. […] Panelists wore nose clips and were blinded to the identity of the samples. Sensitivity index, also referred to as a “d' score” was calculated using known statistical methods.

[1] = tested on: trained sensory panelists; test: Dose response, trained sensory panel, 15-point line scale (Example 4A); format: in vivo, human; conditions: eight concentrations 11.13-625.61 ppm
Procedure: Eight concentrations of rebaudioside J with one blank solution were evaluated (Table 1). Trained sensory panelists participated in an orientation session to familiarize themselves with sample set. Three evaluations (replicates) were obtained from each panelist for each evaluation, and a total of 30 judgments were obtained for each sample.
The panelists were served 10 mL portions of each sample. A 10-minute break was taken between samples. To determine sweetness intensity, the panelists were provided sucrose-containing sweetness intensity reference samples for intensities 5, 8, and 10. For each test sample, the panelists indicated the sweetness intensity of the test sample (labeled with a 3-digit number) on a 15-point line scale.

[2] = tested on: trained sensory panelists; test: Targeted descriptive analysis (Example 4C); format: in vivo, human; conditions: vs rebaudioside A
Procedure: Panelists participated in an orientation session to familiarize themselves with sample set. They reviewed aroma, taste, flavor, and texture to determine the attributes most important for describing and differentiating the samples. These attributes were used to develop the ballot for the test evaluations. Three evaluations (replicates) were obtained from each panelist for each evaluation, and a total of 30 judgments were obtained for each sample. 45 mL of each sample was served in a sequential monadic presentation. The serving order was balanced for each panelist. For each test sample, the panelists indicated the intensity of each sensory attribute (labeled with a 3-digit number) on a 15-point line scale.

[3] = tested on: trained sensory panelists; test: Adaptation, sweetness and bitterness over time (Example 4B); format: in vivo, human
Procedure: Three evaluations (replicates) were obtained from each panelist for each evaluation, and a total of 30 judgments were obtained for each sample. The samples were evaluated for sweetness and bitterness. Samples were presented blind and coded with random three-digit numbers.
Each panelists took a sip, swirled the sample in his or her mouth for 10 seconds, expectorated and subsequently rated sweetness intensity and bitterness intensity using a 15-point line scale. Panelists repeated this procedure every 30 seconds for 3 minutes. After rinsing 6 times with water, the panelists were given a new sample and that sample was evaluated using the procedure described above

human sense of taste = test: Sweetness recognition threshold comparison with 1.5% sucrose; format: in vivo; conditions: rebaudioside J 40 ppm
Description: The term “sweetness recognition threshold concentration,” as generally used herein, is the lowest known concentration of a given sweetener or combination of sweeteners recognized as sweet by the human sense of taste, typically about 1.5% sucrose equivalence.

panelists = test: Benchtop sweetness ranking on 1-10 scale against rebaudioside A 400 ppm and sucrose 6.5% (Example 3); format: in vivo, human; conditions: 400 ppm
Procedure: Sample preparation: 4 degrees Brix HFCS control solution was prepared by adding 50.89 grams of 78.60 degrees Brix HFCS to 1000 g phosphoric acid base which was prepared by adding phosphoric acid dropwise into 1 L of AQUAFINA water until a pH of 3.1 was observed on a calibrated METTLER TOLEDO PH meter.
For some low soluble compounds, Branson 2800 Ultra Sonic Bath was used to dissolve the material. If any cloudiness persisted, the sample solution was passed through a paper filter. Solubility was confirmed by shining a laser pointer through the solution. If no diffraction was observed then it was assumed that the material was soluble.
Preparation of Rebaudioside A for Sensory Evaluation: 400 ppm rebaudioside A in water (pH=7) was prepared by dissolving 40 mg of rebaudioside A with stirring in 100 mL of water at room temperature.
Preparation of Sucrose for Sensory Evaluation: 6.5% sucrose in water (pH=7) was prepared by adding 6.5 g of sucrose and dissolving it in 93.5 g water (total 100 gr).
Tasting Protocol: Panelists were presented with two numbered samples and asked to note the sweet quality differences between the two samples. Panelists commented on sweetness onset, sweetness linger, overall sugar-like sweetness, and other qualities, such as bitter taste, metallic note, astringency, cooling sensation, any off-notes, and any associated flavors. […]

[4] = rated every 30 seconds for 3 minutes, 15-point line scale

SMILES: CC1=CC(=O)NS(=O)(=O)O1 [Acesulfame potassium]
- Panelist reporting Rebaudioside J increased sweetness (%) (sensory panelists): 85%
- d' Score (sensory panelists): 2.30

SMILES: COC(=O)[C@H](Cc1ccccc1)NC(=O)[C@@H](N)CC(=O)O [Aspartame, aspartame] (H-Asp-Phe-OMe)
- Panelist reporting Rebaudioside J increased sweetness (%) (sensory panelists): 86%
- d' Score (sensory panelists): 2.13

SMILES: C=C1C[C@@]23CC[C@H]4[C@@](C)(CCC[C@@]4(C)C(=O)O[C@@H]4O[C@H](CO)[C@@H](O)[C@H](O)[C@H]4O[C@@H]4O[C@@H](C)[C@H](O)[C@@H](O)[C@H]4O)[C@@H]2CC[C@]1(O[C@@H]1O[C@H](CO)[C@@H](O)[C@H](O[C@@H]2O[C@H](CO)[C@@H](O)[C@H](O)[C@H]2O)[C@H]1O[C@@H]1O[C@H](CO)[C@@H](O)[C@H](O)[C@H]1O)C3 [Rebaudioside J, rebaudioside J]
- bitterness intensity (FIG. 4) [1]: low and only increased slightly with increasing concentration
- sweetness intensity (FIG. 4) [1]: increases with increasing concentration
- bitterness compared with rebaudioside A (FIG. 6) ([2]; 15-point line scale): less bitter
- chemical/artificial taste compared with rebaudioside A (FIG. 6) ([2]; 15-point line scale): less chemical/artificial taste than rebaudioside A
- overall impression compared with rebaudioside A (FIG. 8) [2]: scored higher in overall impression than rebaudioside A
- bitterness intensity over time (FIG. 5) [3, 4]: remains low
- sweetness intensity over time (FIG. 5) [3, 4]: decreases over time
- bitterness over time compared with rebaudioside A (FIG. 7) ([3]; vs rebaudioside A): less bitter than rebaudioside A
- sweetness compared with 1.5% sucrose (sweetness recognition threshold) (human sense of taste): less sweet than 1.5% sucrose
- panelists' notes on taste characteristics (panelists): lack of bitterness, sugar-like, syrupy and round characteristics
- sweetness score on scale of 1-10 (FIG. 3) (panelists; rebaudioside A 400 ppm assigned 5, sucrose 6.5% assigned 10, noseclips, blinded): 6.7

SMILES: OC[C@H]1O[C@H](O[C@]2(CCl)O[C@H](CCl)[C@@H](O)[C@@H]2O)[C@H](O)[C@@H](O)[C@H]1Cl [Sucralose, sucralose]
- Panelist reporting Rebaudioside J increased sweetness (%) (sensory panelists): 89%
- d' Score (sensory panelists): 2.44

SMILES: OC[C@H]1O[C@@](CO)(O[C@H]2O[C@H](CO)[C@@H](O)[C@H](O)[C@H]2O)[C@@H](O)[C@@H]1O [Sucrose, sucrose]
- Panelist reporting Rebaudioside J increased sweetness (%) (sensory panelists): 85%
- d' Score (sensory panelists): 2.00
